Experimental data published in patent US11365203B2, “Fluorescent dye and preparation method and use thereof” (Fluorescence Diagnosis (shanghai) Biotech Company Ltd., priority 2016, dated 2022).

What was measured:
Assay type in all cases: physicochemical
[1] = Fluorescence emission spectra of molecular rotors in glycerin and methanol; details: for Maximum Emission Wavelength: 1×10^−5 M in glycerin and methanol, excited at maximum excitation wavelength of each dye; for Fluorescence Intensity Ratios in Glycerol/Methanol: 1×10^−5 M, glycerol vs methanol solution
Description: The fluorescent dyes (molecular rotors) prepared in Examples 1-68 were separately dissolved in dimethyl sulfoxide to prepare respectively a mother liquor having a concentration of 1×10^−2 M, and each of the mother liquors was added individually to glycerin and methanol, and mixed uniformly, thereby solutions of a final concentration of 1×10^−5 M were prepared individually. According to the different fluorescent dyes, the fluorescence emission spectra of the fluorescent dyes were detected with the maximum excitation wavelengths of respective fluorescent dyes successively under the same conditions.

[2] = Fluorescence emission intensity in dichloromethane and methanol (polarity response); details: 1×10^−5 M; dichloromethane vs methanol; 25° C.
Description: Molecular Rotors 1, 2, 3, 22, 57, 63 were added to dichloromethane and methanol respectively to prepare a solution with a final concentration of 1×10^−5 M. Then, the solution was excited individually by excitation wavelengths of 480 nm, 480 nm and 500 nm at 25° C. to detect their fluorescence emission intensities in two different polar solvents.

[3] = Fluorescence emission in ethylene glycol-glycerol mixed solutions of different viscosities; details: 1×10^−5 M, 16.4-946.0 cp; for Emission wavelength: excited at 480 nm; for Viscosity response of fluorescence intensity: log intensity vs log viscosity linear
Description: Molecular Rotors 1, 2, 3, 22, 57, and 63 were added to ethylene glycol-glycerol mixed solutions having viscosities of 16.4 cp, 29.8 cp, 64.5 cp, 143.5 cp, 377.0 cp, and 946.0 cp to prepare a solution with a final concentration of 1×10^−5 M. The solution was excited at 480 nm. The fluorescence emission spectra at different viscosities were shown in FIGS. 1, 4, 7, 10, 13, and 16. Emission wavelengths of the molecular rotors were 555 nm, 590 nm, 610 nm, 570 nm, 559 nm, and 675 nm, respectively.

Maximum Emission Wavelength [1] [nm] | Fluorescence Intensity Ratios in Glycerol/Methanol [1] | Polarity response of fluorescence intensity [2] | Emission wavelength [3] [nm] | Viscosity response of fluorescence intensity [3] | Molecule
590 | 1183 | insensitive to the polarity change | 590 | sensitive to viscosity | 2-[2-cyano-2-(2-benzoxazole)-vinyl]-5-didecylamino-thieno[3,2,b]thiophene [Molecular Rotor 2]
555 | 790 | insensitive to the polarity change | 555 | sensitive to viscosity | CN(C)c1cc2sc(/C=C(\C#N)C(=O)OC(C)(C)C)cc2s1 [Molecular Rotor 1, 2-(2-cyano-2-tert-butyl formatevinyl)-5-dimethylamino-thieno[3,2,b]thiophene]
610 | 1455 | insensitive to the polarity change | 610 | sensitive to viscosity | CN(CCO)c1cc2sc(/C=C(\C#N)c3nc4ccccc4s3)cc2s1 [Molecular Rotor 3, 2-[2-cyano-2-(1,3-benzothiazol-2-yl)-vinyl]-5-(N-methyl-N-hydroxyethyl)-thieno[3,2,b]thiophene]
570 | 989 | insensitive to the polarity change | 570 | sensitive to viscosity | CN(C)c1ccc2cc(/C=C(\C#N)C(=O)OC(C)(C)C)sc2c1 [Molecular Rotor 22]
562 | 466 | – | – | – | COCCNC(=O)/C(C#N)=C/c1cc2cc3cc(N4CCOCC4)sc3cc2s1 [Molecular Rotor 55]
675 | 516 | insensitive to the polarity change | 675 | sensitive to viscosity | CN(C)c1cc2c(s1)c1sc(/C=C(\C#N)C(=O)OC(C)(C)C)cc1n2C [Molecular Rotor 63]
645 | 591 | – | – | – | CN(C)c1cc2c(s1)-c1sc(/C=C(\C#N)C(=O)OC(C)(C)C)cc1C2(C)C [Molecular Rotor 65]
670 | 623 | – | – | – | CN(C)c1cc2c(s1)-c1sc(/C=C(\C#N)c3nc4ccccc4o3)cc1C2(C)C [Molecular Rotor 66]
690 | 789 | – | – | – | CN(CCO)c1cc2c(s1)-c1sc(/C=C(\C#N)c3nc4ccccc4s3)cc1C2(C)C [Molecular Rotor 67]
648 | 953 | – | – | – | CN(CCO)c1cc2c(s1)-c1sc(/C=C(\C#N)C(=O)O)cc1C2(C)C [Molecular Rotor 68]

Molecule | Maximum Emission Wavelength [1] [nm] | Fluorescence Intensity Ratios in Glycerol/Methanol [1] | Polarity response of fluorescence intensity [2] | Emission wavelength [3] [nm] | Viscosity response of fluorescence intensity [3]
CN(C)c1cc2c(s1)-c1sc(C=C(C#N)C#N)cc1[Si]2(C)C [Molecular Rotor 56] | 655 | 591 | – | – | –
CN(CCO)c1cc2c(s1)-c1sc(/C=C(\C#N)C(=O)OC(C)(C)C)cc1[Si]2(C)C [Molecular Rotor 57] | 659 | 884 | insensitive to the polarity change | 559 | sensitive to viscosity
C[Si]1(C)c2cc(/C=C(\C#N)C(=O)O)sc2-c2sc(N(CCO)CCO)cc21 [Molecular Rotor 58] | 656 | 683 | – | – | –
CNc1cc2c(s1)-c1sc(/C=C(\C#N)C(=O)OC(C)(C)C)cc1[Si]21CCC1 [Molecular Rotor 60] | 637 | 812 | – | – | –
CN(CCC#N)c1cc2c(s1)-c1sc(/C=C(\C#N)c3nc4ccccc4o3)cc1[Si]21CCC1 [Molecular Rotor 61] | 691 | 816 | – | – | –
CN(CCO)c1cc2c(s1)-c1sc(/C=C(\C#N)c3nc4ccccc4s3)cc1[Si]21CCC1 [Molecular Rotor 62] | 715 | 759 | – | – | –
